Read-outs that look alike come from different tables or passages of the source.
Assays:
[1] = biological target: JAK2 kinase domain (JH1) (Homo sapiens (Human), UniProt O60674); test: JAK2 Radioactive Kinase Assay; type: biochemical; details: for inhibition at 10 µM: read-out: JAK2 JH1% Inhibition @ 10 μM
Procedure, shortened: (§1)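 Each kinase domain is incubated with test compound at 10 μM. Activity is then measured radiometrically and expressed as percent inhibition relative to uninhibited enzyme.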

[2] = biological target: Tyk2 kinase domain (DH1) (Homo sapiens (Human), UniProt P29597); test: Tyk2 Radioactive Kinase Assay; type: biochemical; details: for inhibition at 10 µM: read-out: Tyk2 JH1% Inhibition @ 10 μM
Tyk2 kinase domain (DH1), sequence (P29597 897-1176): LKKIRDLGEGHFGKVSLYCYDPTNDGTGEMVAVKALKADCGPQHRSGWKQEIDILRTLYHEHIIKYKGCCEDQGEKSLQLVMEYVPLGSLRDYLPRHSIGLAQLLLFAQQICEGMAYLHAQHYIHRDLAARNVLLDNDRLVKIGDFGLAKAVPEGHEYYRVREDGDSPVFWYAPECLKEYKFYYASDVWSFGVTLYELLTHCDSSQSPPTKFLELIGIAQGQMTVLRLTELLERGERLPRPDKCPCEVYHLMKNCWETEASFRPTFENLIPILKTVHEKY
Procedure, shortened: as §1

[3] = biological target: human TYK2 (JH2domain-pseudokinase) (Homo sapiens (Human), UniProt P29597); test: TYK2 JH2 Domain Binding Assay (KINOMEscan)
human TYK2 (JH2domain-pseudokinase), sequence (P29597 556-888): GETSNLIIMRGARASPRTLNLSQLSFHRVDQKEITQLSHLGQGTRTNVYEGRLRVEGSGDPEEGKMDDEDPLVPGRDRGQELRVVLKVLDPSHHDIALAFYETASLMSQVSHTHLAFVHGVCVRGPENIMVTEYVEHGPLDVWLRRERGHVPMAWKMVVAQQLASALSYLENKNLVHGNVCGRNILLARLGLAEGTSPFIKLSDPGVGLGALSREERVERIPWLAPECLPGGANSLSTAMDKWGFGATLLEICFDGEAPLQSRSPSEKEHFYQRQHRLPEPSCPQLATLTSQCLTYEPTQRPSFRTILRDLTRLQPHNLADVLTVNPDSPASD
Procedure, shortened: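 Displacement of a DNA-tagged TYK2 JH2 fusion (human, aa G556–D888, HEK293 extract, <0.1 nM) from ligand-coated beads over 1 h at RT; binding buffer PBS/0.05% Tween 20/10 mM DTT/0.1% BSA.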

JAK2 kinase domain (JH1), sequence (O60674 849-1124): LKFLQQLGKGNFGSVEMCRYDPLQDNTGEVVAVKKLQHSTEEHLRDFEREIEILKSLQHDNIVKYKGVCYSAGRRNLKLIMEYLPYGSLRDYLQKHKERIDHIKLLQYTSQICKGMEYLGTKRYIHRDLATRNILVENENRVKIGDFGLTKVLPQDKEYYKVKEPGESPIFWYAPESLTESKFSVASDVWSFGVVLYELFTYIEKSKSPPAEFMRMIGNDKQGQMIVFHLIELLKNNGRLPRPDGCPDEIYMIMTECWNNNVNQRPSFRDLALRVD

Row | Structure (SMILES) | inhibition at 10 µM ([1]; compound at 10 μM, ATP 10 μM) [%] | inhibition at 10 µM ([2]; compound at 10 μM, ATP 10 μM) [%] | Kd [3] [nM] | inhibition at 10 µM ([1]; 10 μM compound, 10 μM ATP) [%] | inhibition at 10 µM ([2]; 10 μM compound, 10 μM ATP) [%] | JAK2 JH1% Inhibition @ 10 μM ([1]; compound at 10 μM, ATP 10 μM) | Tyk2 JH1% Inhibition @ 10 μM ([2]; compound at 10 μM, ATP 10 μM)
1 | CNc1cc(Nc2cccn([C@@H]3CCCOC3)c2=O)nc2c(C(=O)N[C@@H]3CC[C@@H]3O)cnn12 [I-752] | < 50 | < 50 | 0.2 to 1 | – | – | – | –
2 | CNc1cc(Nc2cccnc2O[C@H]2C[C@H](OC)C2)nc2c(C(=O)N[C@H]3C[C@H]3F)cnn12 [I-189] | < 50 | < 50 | < 0.2 | – | – | – | –
3 | CNc1cc(Nc2cccn([C@H]3CC[C@H](OC)CC3)c2=O)nc2c(C(=O)N[C@H]3COC[C@H]3O)cnn12 [I-746] | < 50 | < 50 | 0.2 to 1 | – | – | – | –
4 | CNc1cc(-c2cn(C3CC3)c3ncccc23)nc2c(C(=O)N[C@H]3CC[C@H]3O)cnn12 [I-1080, 5-(1-cyclopropyl-1H-pyrrolo[2,3-b]pyridin-3-yl)-N-((1S,2R)-2-hydroxycyclobutyl)-7-(methylamino)pyrazolo[1,5-a]pyrimidine-3-carboxamide] | – | – | < 0.2 | < 50 | < 50 | – | –
5 | CNc1cc(Nc2cccn3cnnc23)nc2c(C(=O)N[C@H]3C[C@H]3F)cnn12 [I-660] | < 50 | < 50 | < 0.2 | – | – | – | –
6 | CNc1cc(-c2cn(CCN3CCCCC3)c3ncccc23)nc2c(C(=O)N[C@@H]3CC[C@H]3O)cnn12 [I-794] | < 50 | < 50 | < 0.2 | – | – | – | –
7 | CNc1cc(Nc2cc(C)cn(-c3cnn(C4CC4)c3C)c2=O)nc2c(C(N)=O)cnn12 [I-114] | < 50 | < 50 | 1 to 10 | – | – | – | –
8 | CNc1cc(Nc2cccnc2OC2CC2)nc2c(C(=O)N[C@@H]3CC[C@H]3O)cnn12 [I-398] | < 50 | < 50 | 0.2 to 1 | – | – | – | –
9 | CNc1cc(Nc2cccn(-c3nn(C)c(C)c3C)c2=O)nc2c(C(=O)NC3CC3)cnn12 [I-504] | < 50 | < 50 | 0.2 to 1 | – | – | – | –
10 | CNc1cc(Nc2cccn(-c3ccc(N4CCOCC4)cc3)c2=O)nc2c(C(N)=O)cnn12 [I-10] | < 50 | < 50 | < 0.2 | – | – | – | –
11 | CNc1cc(-c2c[nH]c3c(C4CCOCC4)cc(Cl)cc23)nc2c(C(=O)NC3CC3)cnn12 [I-197] | < 50 | < 50 | 0.2 to 1 | – | – | – | –
12 | CNc1cc(Nc2cccn(-c3cnn(C)c3)c2=O)nc2c(C(=O)NC[C@H](C)CO)cnn12 [I-668] | < 50 | < 50 | < 0.2 | – | – | – | –
13 | CNc1cc(Nc2cccn(C3CCOCC3)c2=O)nc2c(C(=O)NC[C@H](C)CO)cnn12 [I-1031] | – | – | < 0.2 | < 50 | < 50 | – | –
14 | CNc1cc(Nc2cccc([C@H]3CCCOC3)n2)nc2c(C(=O)N[C@@H]3COC[C@@H]3O)cnn12 [I-775] | – | – | < 0.2 | – | – | A (percent inhibition at 10 μM lower than 50) | A (percent inhibition at 10 μM lower than 50)
15 | CNc1cc(Nc2cccn([C@@H]3CCCC[C@@H]3O)c2=O)nc2c(C(=O)N[C@@H]3C[C@@H]3F)cnn12 [I-889] | – | – | 1 to 10 | < 50 | < 50 | – | –
16 | CNc1cc(Nc2cccn(C3CCOC3)c2=O)nc2c(C(N)=O)cnn12 (stereo not drawn) [I-108] | < 50 | < 50 | 0.2 to 1 | – | – | – | –
17 | CNc1cc(Nc2cccn([C@H]3CCCOC3)c2=O)nc2c(C(=O)N[C@H]3CC[C@H](O)C3)cnn12 (stereo in doubt) [I-701, N-(3-hydroxycyclopentyl)-7-(methylamino)-5-((2-oxo-1-((R)-tetrahydro 2H-pyran-3-yl)-1,2-dihydropyridin-3-yl)amino)pyrazolo[1,5-a]pyrimidine-3-carboxamide] | < 50 | < 50 | 0.2 to 1 | – | – | – | –
18 | CNc1cc(Nc2cccn([C@@H]3CCCOC3)c2=O)nc2c(C(=O)N[C@@H]3COC[C@@H]3O)cnn12 [I-787] | < 50 | < 50 | > 10 | – | – | – | –

Row | Structure (SMILES) | inhibition at 10 µM ([1]; compound at 10 μM, ATP 10 μM) [%] | inhibition at 10 µM ([2]; compound at 10 μM, ATP 10 μM) [%] | Kd [3] [nM] | inhibition at 10 µM ([1]; 10 μM compound, 10 μM ATP) [%] | inhibition at 10 µM ([2]; 10 μM compound, 10 μM ATP) [%] | JAK2 JH1% Inhibition @ 10 μM ([1]; compound at 10 μM, ATP 10 μM) | Tyk2 JH1% Inhibition @ 10 μM ([2]; compound at 10 μM, ATP 10 μM)
19 | CNc1cc(-c2cn(CCN3CCOCC3)c3ncccc23)nc2c(C(=O)NC3CC3)cnn12 [I-582] | < 50 | < 50 | < 0.2 | – | – | – | –
20 | CNc1cc(Nc2cccn([C@@H]3CCN(CCC#N)C3)c2=O)nc2c(C(=O)N[C@@H]3C[C@@H]3F)cnn12 [I-987] | – | – | < 0.2 | < 50 | < 50 | – | –
21 | CNc1cc(Nc2cc(C)cn(-c3ccn(C)n3)c2=O)nc2c(C(N)=O)cnn12 [I-26] | < 50 | < 50 | < 0.2 | – | – | – | –
22 | CNc1cc(-n2cc(N3CCCC3)c3ncccc32)nc2c(C(=O)NC3CC3)cnn12 [I-552] | < 50 | < 50 | 1 to 10 | – | – | – | –
23 | CNc1cc(Nc2cccn([C@H]3CCCOC3)c2=O)nc2c(C(=O)N[C@@H]3C[C@@H]3F)cnn12 [I-475] | < 50 | < 50 | < 0.2 | – | – | – | –
24 | CNc1cc(Nc2cccn([C@@H]3CCCC[C@@H]3OC)c2=O)nc2c(C(=O)NCC(C)(C)CO)cnn12 [I-990] | – | – | 1 to 10 | < 50 | < 50 | – | –
25 | CNc1cc(Nc2cc(Cl)cn(-c3ccnc(C)n3)c2=O)nc2c(C(=O)NC3CC3)cnn12 [I-316] | < 50 | < 50 | < 0.2 | – | – | – | –
26 | Cc1cc(C)cc(Nc2cc(N)n3ncc(C(N)=O)c3n2)c1 [I-21] | 70 to 90 | < 50 | 0.2 to 1 | – | – | – | –
27 | CNc1cc(Nc2cccnc2OC2CCCCC2)nc2c(C(=O)NC3CC3)cnn12 [I-221] | < 50 | < 50 | 1 to 10 | – | – | – | –
28 | CNc1cc(Nc2cccn([C@@H]3CC[C@@H]3O)c2=O)nc2c(C(=O)N[C@@H]3C[C@@H]3F)cnn12 [I-1110] | – | – | < 0.2 | < 50 | < 50 | – | –
29 | [2H]C([2H])([2H])Oc1ncccc1Nc1cc(NC)n2ncc(C(=O)NC3[C@H]4COC[C@@H]34)c2n1 (stereo partly drawn) [I-447] | < 50 | < 50 | < 0.2 | – | – | – | –
30 | Cc1cc(Nc2cc(N)n3ncc(C(N)=O)c3n2)c(=O)n(-c2ccn(C)n2)c1 [I-34] | < 50 | < 50 | 0.2 to 1 | – | – | – | –
31 | CNc1cc(Nc2cccn(-c3cccc(F)c3)c2=O)nc2c(C(=O)N[C@@H]3CC[C@H]3O)cnn12 [I-1023] | – | – | < 0.2 | < 50 | < 50 | – | –
32 | CNc1cc(Nc2cccnc2O[C@H]2CC[C@H](O)CC2)nc2c(C(=O)NC3CCC3)cnn12 [I-232] | < 50 | < 50 | < 0.2 | – | – | – | –
33 | CNc1cc(-c2nn(CCN3CCOCC3)c3ncccc23)nc2c(C(=O)N[C@H]3C[C@H]3F)cnn12 [I-456] | < 50 | < 50 | 1 to 10 | – | – | – | –
34 | CNc1cc(Nc2cccc(N3CC(O)C3)n2)nc2c(C(=O)NC3CC3)cnn12 [I-620] | < 50 | < 50 | < 0.2 | – | – | – | –
35 | CNc1cc(Nc2cc(F)cnc2OC(C)C)nc2c(C(=O)NC3CCC3)cnn12 [I-210] | < 50 | < 50 | 0.2 to 1 | – | – | – | –
36 | CNc1cc(Nc2cccn(-c3ccc(F)cc3)c2=O)nc2c(C(=O)NC3COC3)cnn12 [I-109] | < 50 | < 50 | > 10 | – | – | – | –
